The text below walks through data of patent publication US20130230459A1, “RADIOLABELLED mGluR2 PET LIGANDS” (Janssen Pharmaceuticals, Inc., priority 2010, published 2013).

Several values for one entry are separate records, joined by “and”; a condition that tells them apart may be missing. Equal entries are not always repeated.

A short description of data set [1]: Perfused brain radiometabolite analysis (30 min p.i.). The data set is classed as in vivo, Wistar rats. The protocol: The relative amounts of parent tracer and radiometabolites in perfused cerebellum and cerebrum at 30 min p.i. of the tracer was determined in healthy male Wistar rats for [^11C]B-4, [^11C]B-2, [^11C]B-7, and [^11C]B-10. After i.v. administration of about 74 MBq of the radioligand via tail vein under anesthesia (2.5% Isoflurane in O2 at 1 L/min flow rate), rats were sacrificed by administering an overdose of Nembutal (CEVA Santé Animale, 200 mg/kg intraperitoneal). When breathing had stopped, the rats were perfused with saline (Mini Plasco®, Braun, Melsungen, Germany) until the liver turned pale. Brain was isolated, cerebrum and cerebellum were separated and homogenized in 3 mL and 2 mL of CH3CN, respectively, for about 2 min. A volume of 1 mL of this homogenate was diluted with an equal volume of water and a part of this homogenate was filtered through a 0.22 μm filter (Millipore, Bedford, USA). About 0.5 mL of the filtrate was diluted with 0.1 mL of water and spiked with 10 μg of authentic non-radioactive compound (1 mg/mL solution) for identification of the intact tracer. The cerebrum/cerebellum extract was then injected onto an HPLC system consisting of an analytical XBridge® column (C18, 5 μM, 3 mm×100 mm, Waters) eluted with a mixture of 0.05 M NaOAc buffer (pH 5.5) and CH3CN (60:40 v/v) at a flow rate of 0.8 mL/min. The HPLC eluate was collected as 1 mL fractions (fraction collection each minute) after passing through the UV detector (254 nm), and the radioactivity in the fractions was measured using an automated gamma counter.

Data set [2] in a line: Plasma radiometabolite analysis (30 min p.i.). The data set is classed as in vivo, Wistar rats. The following applies: n = 2. As for the experimental part:
The metabolic stability of [^11C]B-4, [^11C]B-2, [^11C]B-7, and [^11C]B-10 was studied in healthy male Wistar rats by determination of the relative amounts of parent tracer and radiometabolites in plasma at 30 min p.i. of the tracer. After intravenous (i.v.) administration of about 74 MBq of the radioligand via tail vein under anesthesia (2.5% Isoflurane in O2 at 1 L/min flow rate), rats were sacrificed by decapitation at 30 min p.i. (n=2). Blood was collected in heparin containing tubes (4.5 mL LH PST tubes; BD vacutainer, BD, Franklin Lakes, N.J., USA) and stored on ice to stop the metabolism. Next, the blood was centrifuged for 5 min at 3000 rpm to separate the plasma. About 0.5 mL of plasma was spiked with about 10 μg of the authentic non-radioactive compound (1 mg/mL solution) and injected on to HPLC, which was connected to a Chromolith® performance column (C18, 3 mm×100 mm, Merck KGaA, Darmstadt, Germany). The mobile phase consisted of 0.05 M NaOAc buffer (pH 5.5) (solution A) and CH3CN (solvent B). The following method was used for the analysis: isocratic elution with 100% A for 4 min at a flow rate of 0.5 mL/min, linear gradient to 90% B by 9 min at a flow rate of 1 mL/min, and isocratic elution with mixture of 10% A and 90% B until 12 min. After passing through the UV detector (254 nm), the HPLC eluate was collected as 1 mL fractions (fraction collection each minute) using an automatic fraction collector and the radioactivity of these fractions was measured using an automated gamma counter.

Consider `[11CH3]Oc1ccc(F)c(F)c1C1CCN(c2ccn3c(CC4CC4)nnc3c2Cl)CC1` [[^11C]B-10, 8-chloro-3-(cyclopropylmethyl)-7-[4-[2,3-difluoro-6-[^11C]methoxyphenyl]-1-piperidinyl]-1,2,4-triazolo[4,3-a]pyridine], for which, in data set [1], the “intact tracer in perfused cerebellum” value was determined as 96.4%, the “intact tracer in perfused cerebrum” value amounted to 93.1%, the “polar metabolite in perfused cerebellum” value was 3.6% and the “polar metabolite in perfused cerebrum” value stood at 6.9%. Besides, the “recovered radioactivity present as intact tracer, on average, in both cerebrum and cerebellum” value (“recovered radioactivity present” below) in data set [1] is “about 90%”. Further, in data set [2], the “Intact tracer in rat plasma” value came out at 45.5 ± 2.1% and the “Polar metabolites in rat plasma” value turned out to be 54.5 ± 2.1%.

As to `[11CH3]Oc1c(F)ccc(F)c1C1CCN(c2ccn3c(CC4CC4)nnc3c2Cl)CC1` [[^11C]B-2, 8-chloro-3-(cyclopropylmethyl)-7-[4-(3,6-difluoro-2-[^11C]methoxyphenyl)-1-piperidinyl]-1,2,4-triazolo[4,3-a]pyridine], in data set [1], the “intact tracer in perfused cerebellum” value is reported as 95.5 ± 1.3%, the “intact tracer in perfused cerebrum” value is 90.3 ± 0.3%, the “polar metabolite in perfused cerebellum” value was 4.1 ± 1.5% and the “polar metabolite in perfused cerebrum” value is given as 9.7 ± 0.3%. The “recovered radioactivity present” value in data set [1] is “about 90%”. Also, in data set [2], the “Intact tracer in rat plasma” value is 70% and 69.7 ± 5.1%; the “Polar metabolites in rat plasma” value is 30.3 ± 5.1%.

On to `[11CH3]Oc1ccc(F)cc1C1CCN(c2ccn3c(CC4CC4)nnc3c2Cl)CC1` [[^11C]B-4, 8-chloro-3-(cyclopropylmethyl)-7-[4-[5-fluoro-2-[^11C]methoxyphenyl]-1-piperidinyl]-1,2,4-triazolo[4,3-a]pyridine], for which, in data set [1], the “intact tracer in perfused cerebellum” value turned out to be 92.7%, the “intact tracer in perfused cerebrum” value amounted to 92.4%, the “polar metabolite in perfused cerebellum” value was 7.3% and the “polar metabolite in perfused cerebrum” value worked out at 7.6%. Further, in data set [1], the “recovered radioactivity present” value is “about 90%”. In data set [2], the “Intact tracer in rat plasma” value is on record as 41.0 ± 7.1% and the “Polar metabolites in rat plasma” value is 59.0 ± 7.1%.

For the compound `[11CH3]Oc1cc(F)cc(F)c1C1CCN(c2ccn3c(CC4CC4)nnc3c2Cl)CC1` [[^11C]B-7, 8-chloro-3-(cyclopropylmethyl)-7-[4-[2,4-difluoro-6-[^11C]methoxyphenyl]-1-piperidinyl]-1,2,4-triazolo[4,3-a]pyridine], in data set [1], the “intact tracer in perfused cerebellum” value is on record as 95.5%, the “intact tracer in perfused cerebrum” value is 92.9%, the “polar metabolite in perfused cerebellum” value worked out at 4.5% and the “polar metabolite in perfused cerebrum” value is reported as 7.1%. Further, in data set [1], the “recovered radioactivity present” value is on record as “about 90%”. For the same compound, in data set [2], the “Intact tracer in rat plasma” value is given as 30.8 ± 7.0% and the “Polar metabolites in rat plasma” value is listed as 69.2 ± 7.0%.
